Source: paper PMC9889749, “CID12261165, a flavonoid compound as antibacterial agents against quinolone-resistant Staphylococcus aureus” (Scientific Reports, 2023)

Assays:
Type in all cases: biochemical
[1] = target: T1, DNA gyrase (GyrA S84L + wild-type GyrB) (Staphylococcus aureus, UniProt Q932M0); assay: in vitro DNA cleavage assay and DNA supercoiling assay with recombinant gyrase
T1 construct: GyrA(S84L) from strain Mu50; with GyrB

[2] = target: T2, topoisomerase IV (wild-type ParC) (Staphylococcus aureus, UniProt Q2FYS4); assay: in vitro DNA cleavage assay with recombinant topoisomerase IV
T2 construct: wild-type ParC from strain FDA209P; with ParE

[3] = target: T3, DNA gyrase (wild-type GyrA + GyrB) (Staphylococcus aureus, UniProt P20831); assay: in vitro DNA cleavage assay and DNA supercoiling assay with recombinant gyrase
T3 construct: wild-type GyrA from strain FDA209P; with GyrB

| SMILES | IC50 [1] [µg/mL] | IC50 [2] [nM] | in vitro DNA cleavage assay and DNA supercoiling assay with recombinant gyrase [3] |
| --- | --- | --- | --- |
| COc1ccc2c(=O)cc(-c3ccc(O)c(OC)c3)oc2c1 [CID12261165] | 4 | – | – |
| C[C@H]1COc2c(N3CCN(C)CC3)c(F)cc3c(=O)c(C(=O)O)cn1c23 [Levofloxacin] | – | 1380 | using levofloxacin as a compound of interest, failure of DNA supercoiling activity was decreased upon acquisition of S84L mutation |
